# According to PubChem BioAssay AID2038 (NMMLSC, 2009):
# pKi: −log10 of the molar value. Active and inactive are the calls of the source. The rule behind the calls is not given here.
# Molecular target: GTPase HRas (Homo sapiens) (UniProt P01112)
# Experiment: Ras wt fluorescent nucleotide binding blockade – biochemical, additional analogs, wildtype, multiplex flow cytometry, Ki, SAR follow-up (AID 2038)
# Conditions: Multiplex bead flow cytometry, fluorescent GTP binding
# GTPase HRas (Homo sapiens), sequence (P01112 whole entry, looked up): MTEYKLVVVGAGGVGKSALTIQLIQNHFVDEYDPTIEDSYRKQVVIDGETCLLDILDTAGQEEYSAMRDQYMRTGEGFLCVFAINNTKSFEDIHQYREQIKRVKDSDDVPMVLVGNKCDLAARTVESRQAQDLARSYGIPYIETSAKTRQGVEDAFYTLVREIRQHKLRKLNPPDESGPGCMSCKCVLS
row,Structure (SMILES),EC50
1,O=C1N=c2ccccc2=C1c1[nH]c(=S)[nH]c1O,> 30 µM (inactive)
2,O=Nc1c(-c2c(O)[nH]c3c(Br)cccc23)[nH]c2ccccc12,> 37.5 µM (inactive)
3,O=C1C(c2c(O)[nH]c3c(Br)cccc23)=Nc2ccccc21,> 30 µM (inactive)
4,O=Nc1c(-c2c(O)[nH]c3c(Cl)cccc23)[nH]c2ccccc12,> 30 µM (inactive)
5,O=Nc1c(-c2c(O)[nH]c3ccc(Br)cc23)[nH]c2ccccc12,> 30 µM (inactive)
6,O=C1C(c2c(O)[nH]c3ccc(Br)cc23)=Nc2ccccc21,> 30 µM (inactive)
7,COc1ccc2cc([C@H](C)C(=O)O)ccc2c1,> 30 µM (inactive)

# Continued, values first:
row,EC50,Structure (SMILES)
1,> 30 µM (inactive),O=Nc1c(-c2c(O)[nH]c3ccccc23)[nH]c2ccccc12
2,> 30 µM (inactive),O=C1C(c2c(O)[nH]c3ccccc23)=Nc2ccccc21
3,> 30 µM (inactive),O=Nc1c(-c2c(O)[nH]c3c(F)cccc23)[nH]c2ccccc12
4,> 30 µM (inactive),O=C1C(c2c(O)[nH]c3c(F)cccc23)=Nc2ccccc21
5,> 30 µM (inactive),O=C1N=c2ccccc2=C1c1[nH]c(=O)[nH]c1O
6,> 30 µM (inactive),O=C1C(c2c(O)[nH]c3c(Cl)cccc23)=Nc2ccccc21

# Same assay, conditions: Multiplex bead flow cytometry, fluorescent GTP binding; measured here: Ki from EC50
row,pKi,Structure (SMILES)
1,5.23,O=Nc1c(-c2c(O)[nH]c3c(Br)cccc23)[nH]c2ccccc12
2,5.32,O=C(C#Cc1ccccc1)c1ccc(F)cc1
3,6.31,COc1ccc2cc([C@@H](C)C(=O)O)ccc2c1
